Data set [1] relates to mouse spleen cells. Nature of the data set: Action against blast formation reaction of mouse spleen cells (ConA-induced DNA synthesis, 3H-thymidine intake). Format: cell-based, BALB/C mouse. The conditions noted are these: Experiment 1, 10^-4 M, ConA 2 μg/ml, read-out: Activity (relative activity, 3H-thymidine intake, control = 100). On the procedure: Action Against Blast Formation Reaction of Mouse Spleen Cells The action of the compound of the present invention against the DNA synthesis of mouse spleen cells, which synthesis is induced by Concanavalin A (hereinafter referred to as ConA for short) was examined. 1×10^5 spleen cells of BALB/C mouse (female, 10 weeks old) were incubated with 2 μg/ml of ConA and 10^-6, 10^-5, or 10^-4 M of the compound of the present invention in RPMI 1640 medium containing 10% […] at 37° C. in an atmosphere containing 5% CO2 for 48 hours. Subsequently, ^3 H-thymidine was added to the culture and then the culture was incubated for another 18 hours. The incubated cells were collected with a harvester and the intake of ^3 H-thymidine by the cells was determined using a scintillation counter. The activity in the table is relative activity when the activity of the control is 100.

Data set [2] has as its system mouse spleen cells. Described as above. Format: cell-based, BALB/C mouse. Particulars: ConA 2 μg/ml, read-out: Activity (relative activity, 3H-thymidine intake, control = 100).
Data set [3] has as its system spleen cells producing anti-SRBC antibody. Put plainly: Antibody production-promoting action (PFC number against SRBC, Jerne's method). The conditions noted are these: oral, twice (day of immunization and next day), 3 days after immunization. Format: in vivo, ICR mice. On the procedure:
Antibody Production-Promoting Action
The action of the compound of the present invention with respect to the antibody production of mouse against sheep red blood cells (SRBC) was examined.
To tail veins of ICR mice (female, 7 weeks old, 4 mice in each group), 5×10^7 SRBC were injected to immunize the mice. The compound of the present invention suspended in 0.5% methyl cellulose solution was orally administered twice to the mice on the day of immunization and on the next day. Three days after immunization, the number of spleen cells producing anti-SRBC antibody (PFC number) was checked by Jerne's method (Science Vol. 140, p. 405 (1963)).
In Table 2, the activity is the relative PFC number when the PFC number of the control is 100.

The conditions of data set [4]: cited from earlier work.
The next data set deals with rat EAE. Nature of the data set: Action against experimental allergic encephalomyelitis (EAE) of rats. Format: in vivo, Lewis rat. Particulars: subcutaneous, 8 times; for Survival Rate: 50 days after inoculation, control 6/8; for Crisis Day (Mean): control 9.1 ± 0.6; for Clin. Score (Mean): score 0 to 5, control 1.0 ± 0.4, * p < 0.01.
The next data set has as its system mice. Nature of the data set: Acute toxicity (oral). It counts as in vivo, ddY mice. The conditions noted are these: 300 mg/kg, 6 mice per group. From the text:
Oral toxicity of the compound of the present invention was examined using mice.
The compound of the present invention was suspended in 0.5% solution of methyl cellulose and the suspension was orally administered to ddY mice (male, 7 weeks old, 6 mice per group). The conditions of the mice were observed and the number of deaths in 14 days from administration was checked.

The next data set relates to immune system. The conditions noted are these: published by the inventors, Pharmaceutical Society of Japan 1984; cited from earlier work.

Like-named read-outs stand apart in the source and are kept apart here.

For the compound `COc1ccc(C=CC=Cc2cc(=S)ss2)cc1` [Compound 3, 5-{4-(4-methoxyphenyl)-1,3-butadienyl}-1,2-dithiol-3-thione], the activity at 100 µM in the data set with mouse spleen cells [1] turned out to be 291%. Moreover, in the data set on mouse spleen cells [2] (Experiment 1, 10^-5 M), the activity at 10 µM is 338%. Besides, the activity at 1 µM in the data set on mouse spleen cells [2] (Experiment 1, 10^-6 M) stood at 175%. The “Activity (relative PFC number, control = 100)” value was 117 in data set [3] (0.4 mg/kg) and 186 in data set [3] (2.0 mg/kg).

As for `c1ccc([C@H]2CN3CCSC3=N2)cc1` [levamisole], the side effects result in data set [4] (clinical use, reported) was “vomiturition, eruption and hemotoxicity”. Moreover, in data set [4] (disappears upon stopping the administration), the “most serious side effect” value was “granulocytopenia”.

As to `Cc1ccc(C=CC=Cc2cc(=S)ss2)cc1` [Compound 5, 5-{4-(p-toluyl)-1,3-butadienyl}-1,2-dithiol-3-thione], the activity at 10 µM in the data set with mouse spleen cells [2] (Experiment 2, 10^-5 M) stood at 228%. The activity at 1 µM in the data set with mouse spleen cells [2] (Experiment 2, 10^-6 M) was 130%.

As to `S=c1cc(C=CC=Cc2ccccc2)ss1` [Compound 1, 5-(4-phenyl-1,3-butadienyl)-1,2-dithiol-3-thione], in the data set on rat EAE (0.3 mg/kg/d), the “Survival Rate” value is on record as 8/8, the “Crisis Day (Mean)” value is reported as 10.5 ± 0.9 and the “Clin. Score (Mean)” value is on record as 0.3 ± 0.1. Further, in the data set with rat EAE (3 mg/kg/d), the “Survival Rate” value is given as 8/8, the “Crisis Day (Mean)” value was determined as 10.3 ± 0.7 and the “Clin. Score (Mean)” value was determined as 0.2 ± 0.1. The activity at 100 µM with mouse spleen cells [1] was determined as 196%. Moreover, in the data set on mouse spleen cells [2] (Experiment 1, 10^-5 M), the activity at 10 µM was 281%. In the data set on mouse spleen cells [2] (Experiment 1, 10^-6 M), the activity at 1 µM was 250%. Further, the “Activity (relative PFC number, control = 100)” value in data set [3] (0.4 mg/kg) came to 258. The “Activity (relative PFC number, control = 100)” value in data set [3] (2.0 mg/kg) worked out at 149.

Consider `O=C(O)CCCCC1CCSS1` (racemic) [Lipoic Acid, DL-thioctic acid, reference compound], for which the “number of deaths in 14 days from administration” value in the data set on mice was “one mouse in 6 mice died”. The immunomodulating effect result with immune system is “excellent immunomodulating effect”. The activity at 100 µM in the data set with mouse spleen cells [1] is 234%. In addition, the activity at 10 µM in the data set on mouse spleen cells [2] (Experiment 1, 10^-5 M) is 146%; in the data set with mouse spleen cells [2] (Experiment 2, 10^-5 M), 159%. Further, the activity at 1 µM was 142% in the data set with mouse spleen cells [2] (Experiment 1, 10^-6 M) and 95% in the data set with mouse spleen cells [2] (Experiment 2, 10^-6 M).

These data come from patent US4760078A, “Immunomodulator 1,2-dithiol-3-thione derivative composition, use method and process of producing the same” (priority 1986, dated 1988).
